What was measured:
[1] = target: Protein kinase C alpha type (Homo sapiens) (UniProt P17252); assay: Inhibition of human truncated PKC alpha expressed in baculovirus assessed as substrate phosphorylation using fluorescence-labelled peptides as substrate at 0.06 uM after 90 mins by microfluidic peptide phosphorylation assay
Homo sapiens = organism: Homo sapiens; assay: Inhibition of human full length PKA expressed in baculovirus assessed as substrate phosphorylation using fluorescence-labelled peptides as substrate at 0.2 uM after 90 mins by microfluidic peptide phosphorylation assay
[2] = target: Fibroblast growth factor receptor 4 (Homo sapiens) (UniProt P22455); assay: Inhibition of human FGFR4 catalytic domain expressed in baculovirus assessed as substrate phosphorylation using fluorescence-labelled peptides as substrate at 420 uM after 90 mins by microfluidic peptide phosphorylation assay
[3] = target: Tyrosine-protein kinase Fyn (Homo sapiens) (UniProt P06241); assay: Inhibition of human full length FYN expressed in baculovirus assessed as substrate phosphorylation using fluorescence-labelled peptides as substrate at 420 uM after 90 mins by microfluidic peptide phosphorylation assay
[4] = target: T1, Serine/threonine-protein kinase Chk1 (Homo sapiens) (UniProt O14757); details: 9 uM
T1 sequence (whole entry): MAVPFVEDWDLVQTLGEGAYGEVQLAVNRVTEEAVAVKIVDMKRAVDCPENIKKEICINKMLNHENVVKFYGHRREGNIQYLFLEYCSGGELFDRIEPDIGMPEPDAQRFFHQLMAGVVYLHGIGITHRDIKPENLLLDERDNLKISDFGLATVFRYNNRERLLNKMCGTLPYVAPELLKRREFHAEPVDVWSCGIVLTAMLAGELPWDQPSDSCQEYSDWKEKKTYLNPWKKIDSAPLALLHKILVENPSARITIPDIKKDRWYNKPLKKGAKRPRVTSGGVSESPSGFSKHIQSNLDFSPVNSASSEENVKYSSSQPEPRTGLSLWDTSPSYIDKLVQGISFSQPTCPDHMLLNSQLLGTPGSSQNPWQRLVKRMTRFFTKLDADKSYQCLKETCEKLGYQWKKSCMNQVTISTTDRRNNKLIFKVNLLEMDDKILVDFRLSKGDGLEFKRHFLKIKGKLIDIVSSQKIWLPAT
Description: Inhibition of human full length CHK1 expressed in baculovirus assessed as substrate phosphorylation using fluorescence-labelled peptides as substrate at 9 uM after 90 mins by microfluidic peptide phosphorylation assay

[5] = target: T2, Testis-specific serine/threonine-protein kinase 2 (Homo sapiens) (UniProt Q96PF2); assay: Inhibition of human full length TSSK2 expressed in baculovirus assessed as substrate phosphorylation using fluorescence-labelled peptides as substrate at 1000 uM after 90 mins by microfluidic peptide phosphorylation assay
T2 sequence (whole entry): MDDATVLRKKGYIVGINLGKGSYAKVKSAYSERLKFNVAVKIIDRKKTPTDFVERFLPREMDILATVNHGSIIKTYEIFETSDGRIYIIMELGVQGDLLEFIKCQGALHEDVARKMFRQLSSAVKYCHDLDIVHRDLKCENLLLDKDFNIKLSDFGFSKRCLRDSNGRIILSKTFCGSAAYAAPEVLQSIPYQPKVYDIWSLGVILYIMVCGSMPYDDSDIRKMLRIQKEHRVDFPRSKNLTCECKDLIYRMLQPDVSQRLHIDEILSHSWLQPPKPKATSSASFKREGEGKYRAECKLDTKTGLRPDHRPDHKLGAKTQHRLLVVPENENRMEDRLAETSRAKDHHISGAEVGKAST

[6] = target: Tyrosine-protein kinase ABL1 (Homo sapiens) (UniProt P00519); assay: Inhibition of human full-length ABL expressed in baculovirus assessed as substrate phosphorylation using fluorescence-labelled peptides as substrate at 2 uM after 90 mins by microfluidic peptide phosphorylation assay
[7] = target: T1, Serine/threonine-protein kinase Chk1 (Homo sapiens); assay: Inhibition of human full length CHK1 expressed in baculovirus assessed as substrate phosphorylation using fluorescence-labelled peptides as substrate at 2 uM after 90 mins by microfluidic peptide phosphorylation assay
[8] = target: Serine/threonine-protein kinase MARK1 (Homo sapiens) (UniProt Q9P0L2); assay: Inhibition of human full length MARK1 expressed in baculovirus assessed as substrate phosphorylation using fluorescence-labelled peptides as substrate at 2 uM after 90 mins by microfluidic peptide phosphorylation assay
[9] = target: Protein kinase C eta type (Homo sapiens) (UniProt P24723); assay: Inhibition of human truncated PKC eta expressed in baculovirus assessed as substrate phosphorylation using fluorescence-labelled peptides as substrate at […] after 90 mins by microfluidic peptide phosphorylation assay
[10] = target: Rho-associated protein kinase 2 (Homo sapiens) (UniProt O75116); assay: Inhibition of human ROCK2 catalytic domain expressed in baculovirus assessed as substrate phosphorylation using fluorescence-labelled peptides as substrate at […] after 90 mins by microfluidic peptide phosphorylation assay
[11] = target: Serine/threonine-protein kinase PAK 2 (Homo sapiens) (UniProt Q13177); assay: Inhibition of human truncated PAK2 expressed in Escherichia coli cell assessed as substrate phosphorylation using fluorescence-labelled peptides as substrate at […] after 90 mins by microfluidic peptide phosphorylation assay
[12] = target: T3, MAP kinase-activated protein kinase 5 (Homo sapiens) (UniProt Q8IW41); assay: Inhibition of human full length PRAK expressed in baculovirus assessed as substrate phosphorylation using fluorescence-labelled peptides as substrate at […] after 90 mins by microfluidic peptide phosphorylation assay
T3 sequence (whole entry): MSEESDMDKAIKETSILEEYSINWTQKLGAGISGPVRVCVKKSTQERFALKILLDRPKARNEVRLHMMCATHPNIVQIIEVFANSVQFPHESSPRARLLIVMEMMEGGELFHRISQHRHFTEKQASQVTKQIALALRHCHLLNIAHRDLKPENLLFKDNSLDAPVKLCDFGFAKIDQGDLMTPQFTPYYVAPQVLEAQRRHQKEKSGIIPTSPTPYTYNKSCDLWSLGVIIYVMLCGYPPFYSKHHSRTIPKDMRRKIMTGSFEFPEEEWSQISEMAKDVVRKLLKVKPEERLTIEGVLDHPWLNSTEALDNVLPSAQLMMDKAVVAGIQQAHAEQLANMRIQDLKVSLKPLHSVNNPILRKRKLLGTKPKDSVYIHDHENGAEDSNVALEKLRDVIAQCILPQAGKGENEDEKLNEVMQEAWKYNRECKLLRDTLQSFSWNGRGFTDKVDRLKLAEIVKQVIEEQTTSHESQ

[13] = target: Calcium/calmodulin-dependent protein kinase type II subunit beta (Homo sapiens) (UniProt Q13554); assay: Inhibition of human CAMK2 beta catalytic domain expressed in baculovirus assessed as substrate phosphorylation using fluorescence-labelled peptides as substrate at 8 uM after 90 mins by microfluidic peptide phosphorylation assay
[14] = target: Receptor-type tyrosine-protein kinase FLT3 (Homo sapiens) (UniProt P36888); assay: Inhibition of human FLT3 catalytic domain expressed in baculovirus assessed as substrate phosphorylation using fluorescence-labelled peptides as substrate at 0.1 uM after 90 mins by microfluidic peptide phosphorylation assay
[15] = target: Protein kinase C alpha type (Homo sapiens) (UniProt P17252); details: 0.1 uM
Description: Inhibition of human truncated PKC alpha expressed in baculovirus assessed as substrate phosphorylation using fluorescence-labelled peptides as substrate at 0.1 uM after 90 mins by microfluidic peptide phosphorylation assay

[16] = target: Fibroblast growth factor receptor 4 (Homo sapiens) (UniProt P22455); details: 0.1 uM
Description: Inhibition of human FGFR4 catalytic domain expressed in baculovirus assessed as substrate phosphorylation using fluorescence-labelled peptides as substrate at 0.1 uM after 90 mins by microfluidic peptide phosphorylation assay

[17] = target: Tyrosine-protein kinase BTK (Homo sapiens) (UniProt Q06187); details: 0.1 uM
Tyrosine-protein kinase BTK (Homo sapiens), sequence (Q06187 whole entry): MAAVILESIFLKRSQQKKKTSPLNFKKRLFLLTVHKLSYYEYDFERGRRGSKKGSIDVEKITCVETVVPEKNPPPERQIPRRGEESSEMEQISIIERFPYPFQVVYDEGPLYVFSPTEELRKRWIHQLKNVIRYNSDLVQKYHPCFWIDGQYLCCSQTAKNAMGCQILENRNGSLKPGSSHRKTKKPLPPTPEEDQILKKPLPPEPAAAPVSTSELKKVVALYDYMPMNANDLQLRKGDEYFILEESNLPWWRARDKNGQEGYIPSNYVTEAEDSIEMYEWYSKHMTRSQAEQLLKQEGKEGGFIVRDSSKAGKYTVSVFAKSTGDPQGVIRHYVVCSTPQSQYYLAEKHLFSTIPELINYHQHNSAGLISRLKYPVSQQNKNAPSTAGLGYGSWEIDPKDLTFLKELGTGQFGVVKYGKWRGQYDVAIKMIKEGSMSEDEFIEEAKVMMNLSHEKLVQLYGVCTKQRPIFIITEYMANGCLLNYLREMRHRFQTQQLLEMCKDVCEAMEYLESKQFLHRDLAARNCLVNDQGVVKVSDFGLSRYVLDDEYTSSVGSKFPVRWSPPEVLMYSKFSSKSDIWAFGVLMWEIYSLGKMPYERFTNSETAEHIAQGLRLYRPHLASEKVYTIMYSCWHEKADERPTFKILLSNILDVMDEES
Description: Inhibition of human full length BTK expressed in baculovirus assessed as substrate phosphorylation using fluorescence-labelled peptides as substrate at 0.1 uM after 90 mins by microfluidic peptide phosphorylation assay

Fibroblast growth factor receptor 4 (Homo sapiens), sequence (P22455 22-802 limits assumed): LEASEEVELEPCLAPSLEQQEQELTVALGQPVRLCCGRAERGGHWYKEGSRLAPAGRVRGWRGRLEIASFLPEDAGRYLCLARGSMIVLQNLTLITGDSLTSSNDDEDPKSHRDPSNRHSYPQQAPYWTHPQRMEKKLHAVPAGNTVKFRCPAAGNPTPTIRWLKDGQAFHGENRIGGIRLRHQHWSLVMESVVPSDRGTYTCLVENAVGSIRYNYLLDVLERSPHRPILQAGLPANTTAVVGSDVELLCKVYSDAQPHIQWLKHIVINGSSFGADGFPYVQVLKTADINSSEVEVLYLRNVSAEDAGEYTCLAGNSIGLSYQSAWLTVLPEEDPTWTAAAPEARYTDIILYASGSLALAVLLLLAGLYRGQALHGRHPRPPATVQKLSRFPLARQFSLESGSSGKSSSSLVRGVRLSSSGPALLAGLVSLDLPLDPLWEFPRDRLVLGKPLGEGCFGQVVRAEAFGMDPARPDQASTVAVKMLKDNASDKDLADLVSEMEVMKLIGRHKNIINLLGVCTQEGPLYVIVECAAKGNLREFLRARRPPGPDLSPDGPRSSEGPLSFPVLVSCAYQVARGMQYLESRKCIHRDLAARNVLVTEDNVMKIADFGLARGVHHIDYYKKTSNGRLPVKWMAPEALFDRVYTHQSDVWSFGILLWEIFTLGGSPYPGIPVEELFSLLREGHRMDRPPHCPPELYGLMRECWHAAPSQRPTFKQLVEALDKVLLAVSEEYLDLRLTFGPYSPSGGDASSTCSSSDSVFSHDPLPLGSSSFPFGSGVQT
Calcium/calmodulin-dependent protein kinase type II subunit beta (Homo sapiens), sequence (Q13554 whole entry, the tested form may be a part): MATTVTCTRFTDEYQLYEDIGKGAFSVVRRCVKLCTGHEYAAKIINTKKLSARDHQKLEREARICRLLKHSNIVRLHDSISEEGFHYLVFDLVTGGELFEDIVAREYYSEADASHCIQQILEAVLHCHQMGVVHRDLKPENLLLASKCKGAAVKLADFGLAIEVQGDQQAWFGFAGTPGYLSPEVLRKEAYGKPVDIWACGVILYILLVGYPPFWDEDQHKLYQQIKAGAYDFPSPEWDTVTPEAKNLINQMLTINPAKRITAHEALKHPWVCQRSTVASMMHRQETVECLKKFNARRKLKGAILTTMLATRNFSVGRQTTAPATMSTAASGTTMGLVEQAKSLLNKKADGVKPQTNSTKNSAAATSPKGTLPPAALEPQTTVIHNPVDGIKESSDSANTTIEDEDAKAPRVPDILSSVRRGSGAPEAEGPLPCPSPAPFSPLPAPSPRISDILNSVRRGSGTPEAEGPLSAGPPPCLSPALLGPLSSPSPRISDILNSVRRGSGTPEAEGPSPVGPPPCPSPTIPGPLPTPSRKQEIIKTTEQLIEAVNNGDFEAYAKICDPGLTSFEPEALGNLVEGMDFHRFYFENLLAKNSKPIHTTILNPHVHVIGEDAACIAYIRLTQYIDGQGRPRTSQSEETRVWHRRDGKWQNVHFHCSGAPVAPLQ
Rho-associated protein kinase 2 (Homo sapiens), sequence (O75116 whole entry, looked up, the tested form may be a part): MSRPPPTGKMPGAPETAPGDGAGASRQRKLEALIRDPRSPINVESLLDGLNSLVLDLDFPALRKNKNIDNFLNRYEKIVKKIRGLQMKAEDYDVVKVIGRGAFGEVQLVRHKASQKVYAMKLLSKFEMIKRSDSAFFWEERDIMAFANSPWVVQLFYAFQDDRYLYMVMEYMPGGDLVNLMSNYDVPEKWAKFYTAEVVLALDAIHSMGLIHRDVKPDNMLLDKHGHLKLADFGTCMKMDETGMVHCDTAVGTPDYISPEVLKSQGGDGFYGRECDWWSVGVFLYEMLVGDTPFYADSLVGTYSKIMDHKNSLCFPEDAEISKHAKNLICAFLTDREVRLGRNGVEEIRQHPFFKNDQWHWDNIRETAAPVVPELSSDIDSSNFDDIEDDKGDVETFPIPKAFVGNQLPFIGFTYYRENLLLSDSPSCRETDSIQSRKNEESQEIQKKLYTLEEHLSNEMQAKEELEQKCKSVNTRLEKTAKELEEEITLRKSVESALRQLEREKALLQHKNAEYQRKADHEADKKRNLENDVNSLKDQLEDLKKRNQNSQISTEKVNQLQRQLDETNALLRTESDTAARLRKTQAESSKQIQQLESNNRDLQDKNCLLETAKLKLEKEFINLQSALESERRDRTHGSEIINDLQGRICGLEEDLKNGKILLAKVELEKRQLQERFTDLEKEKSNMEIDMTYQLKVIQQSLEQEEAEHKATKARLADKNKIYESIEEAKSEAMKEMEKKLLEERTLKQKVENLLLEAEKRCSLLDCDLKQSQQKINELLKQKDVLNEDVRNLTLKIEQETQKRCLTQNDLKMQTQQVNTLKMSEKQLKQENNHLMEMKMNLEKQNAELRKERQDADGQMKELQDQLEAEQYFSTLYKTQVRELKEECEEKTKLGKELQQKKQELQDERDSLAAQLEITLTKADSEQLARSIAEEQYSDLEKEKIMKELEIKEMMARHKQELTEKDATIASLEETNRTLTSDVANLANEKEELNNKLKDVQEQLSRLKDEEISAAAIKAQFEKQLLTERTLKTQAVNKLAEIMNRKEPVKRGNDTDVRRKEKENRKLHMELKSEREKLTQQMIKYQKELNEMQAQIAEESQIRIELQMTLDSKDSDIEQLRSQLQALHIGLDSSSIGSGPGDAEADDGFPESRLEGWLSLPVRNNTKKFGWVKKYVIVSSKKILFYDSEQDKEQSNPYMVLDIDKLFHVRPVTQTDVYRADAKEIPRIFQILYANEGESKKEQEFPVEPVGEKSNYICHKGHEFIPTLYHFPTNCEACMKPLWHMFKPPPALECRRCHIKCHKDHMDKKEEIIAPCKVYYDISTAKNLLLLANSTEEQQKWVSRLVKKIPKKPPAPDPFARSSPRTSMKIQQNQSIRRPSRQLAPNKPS
Serine/threonine-protein kinase MARK1 (Homo sapiens), sequence (Q9P0L2 whole entry, looked up, the tested form may be a part): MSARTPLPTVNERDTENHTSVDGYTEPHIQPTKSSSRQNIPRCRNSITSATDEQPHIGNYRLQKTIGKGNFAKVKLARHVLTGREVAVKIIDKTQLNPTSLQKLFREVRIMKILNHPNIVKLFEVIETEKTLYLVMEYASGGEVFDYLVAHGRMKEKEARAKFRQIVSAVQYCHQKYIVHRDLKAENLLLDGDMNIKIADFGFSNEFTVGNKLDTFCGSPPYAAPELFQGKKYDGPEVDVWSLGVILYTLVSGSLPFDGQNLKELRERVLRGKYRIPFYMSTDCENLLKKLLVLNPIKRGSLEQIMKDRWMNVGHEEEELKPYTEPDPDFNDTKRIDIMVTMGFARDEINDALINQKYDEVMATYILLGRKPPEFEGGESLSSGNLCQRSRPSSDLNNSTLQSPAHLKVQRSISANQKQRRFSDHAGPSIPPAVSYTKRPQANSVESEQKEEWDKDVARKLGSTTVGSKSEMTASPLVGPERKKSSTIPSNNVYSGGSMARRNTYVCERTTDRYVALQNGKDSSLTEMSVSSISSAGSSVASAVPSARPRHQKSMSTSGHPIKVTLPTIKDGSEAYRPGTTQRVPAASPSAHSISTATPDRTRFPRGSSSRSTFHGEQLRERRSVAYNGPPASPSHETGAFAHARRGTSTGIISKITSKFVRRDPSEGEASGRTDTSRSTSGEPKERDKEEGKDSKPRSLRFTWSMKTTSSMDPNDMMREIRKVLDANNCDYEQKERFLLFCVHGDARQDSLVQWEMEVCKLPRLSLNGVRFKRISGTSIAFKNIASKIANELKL

SMILES: NC1(Cc2ccc(Cl)cc2)CCN(c2ncnc3[nH]ccc23)CC1
- inhibition [1]: 30%

SMILES: Clc1ccc(C2(c3ccc(-c4ncnc5[nH]cnc45)cc3)CCNCC2)cc1
- inhibition (Homo sapiens): 100%

SMILES: c1nc(N2CCOCC2)c2nc[nH]c2n1
- inhibition [2]: 75.5%
- inhibition [3]: 64.5%

SMILES: NCC1CN(c2ncnc3[nH]c4cnccc4c23)CCO1 (stereo not drawn)
- inhibition [4]: 91%

SMILES: c1cnc2[nH]ccc2c1
- inhibition [5]: 37%

SMILES: NC1CCN(c2ncnc3[nH]ccc23)CC1
- inhibition [6]: 13.5%
- inhibition [7]: 1.5%
- inhibition [8]: 34.5%

SMILES: COC(=O)c1cnc(Nc2cnc(C#N)cn2)cc1NCC1CCNCC1
- inhibition [9]: 1%
- inhibition [10]: 2%
- inhibition [11]: 1.5%
- inhibition [12]: 4%

SMILES: NCC1CCN(c2ncnc3[nH]ccc23)CC1
- inhibition [13]: 81%

SMILES: C[C@H](CN(C)C)Oc1nc(Nc2cc3cccc(Cl)c3cn2)cnc1C#N
- inhibition [14]: 7%
- inhibition [15]: 0%
- inhibition [16]: 0%
- inhibition [17]: 0%
